Measurements: patent publication US20120232070A1, “Use of Indole Derivatives as Nurr-1 Activators for the Application Thereof as a Medicament for the Treatment of Parkinson's Disease” (Laboratoires Fournier SA, priority 2009, published 2012)

Assays:
[1] = target: hNurr1_RXRγFL (NURR1/RXRγ heterodimer) (Homo sapiens, UniProt P43354+P48443); test: Transactivation assay in Cos-7 cells, NURR-1-Gal4 / RXRγ, luciferase reporter; assay type: cell-based; conditions: for Emax: COS-7, read-out: hNurr1_RXRγFL Eff (%), efficacy in % relative to the reference XCT0135908 at 2·10^−5 M (=100%); for EC50: Cos-7 cells, overnight incubation
Protocol: (§1) First, the capacity of the compounds according to the invention for acting as an activator of the heterodimers formed by the NURR-1 nuclear receptor and the RXR nuclear receptors was measured by an in vitro assay.
(§2) A transactivation assay was used as a primary screening assay. Cos-7 cells were co-transfected with a plasmid expressing a chimera of the human receptor NURR-1-Gal4, a plasmid expressing the human receptor RXR (RXRα or RXRγ receptor) and a reporter plasmid 5Gal4pGL3-TK-Luc. The transfections were performed by means of a chemical agent (Jet PEI).
(§3) The transfected cells were distributed in 384-well plates and left resting for 24 hours.
(§4) After 24 hours, the culture medium was changed. The products according to the invention were added (final concentration between 10^−4 and 3·10^−10 M) to the culture medium. After overnight incubation, luciferase expression was measured after addition of “SteadyGlo” according to the manufacturer's instructions (Promega).
(§5) 4-[[6-Methyl-2-phenyl-5-(2-prop enyl)-4-pyrimidinyl]amino]-benzoic acid (called XCT0135908, which was described in the article by Wallen-Mackenzie et al. published in Genes & Development 17, pages 3036-3047) at 2·10^−5 M (RXR agonist) was used as reference.
(§6) The levels of induction (designated by “efficiency”) were calculated relative to the baseline activity of each heterodimer. The results were expressed as a percentage of the level of induction relative to the level of induction obtained with the reference (the level of induction of the reference is arbitrarily taken to be 100%).

[2] = target: hNurr1_RXRαFL (NURR1/RXRα heterodimer) (Homo sapiens, UniProt P19793+P43354); test: Transactivation assay in Cos-7 cells, NURR-1-Gal4 / RXRα, luciferase reporter; assay type: cell-based; conditions: for Emax: COS-7, read-out: hNurr1_RXRαFL Eff (%), efficacy in % relative to the reference XCT0135908 at 2·10^−5 M (=100%); for EC50: Cos-7 cells, overnight incubation
Protocol: as §1, §2, §3, §4, §5, §6

[3] = efficacy in % relative to the reference XCT0135908 at 2·10^−5 M (=100%)

hNurr1_RXRαFL (NURR1/RXRα heterodimer), sequence (P19793 whole entry, the tested form may be a part): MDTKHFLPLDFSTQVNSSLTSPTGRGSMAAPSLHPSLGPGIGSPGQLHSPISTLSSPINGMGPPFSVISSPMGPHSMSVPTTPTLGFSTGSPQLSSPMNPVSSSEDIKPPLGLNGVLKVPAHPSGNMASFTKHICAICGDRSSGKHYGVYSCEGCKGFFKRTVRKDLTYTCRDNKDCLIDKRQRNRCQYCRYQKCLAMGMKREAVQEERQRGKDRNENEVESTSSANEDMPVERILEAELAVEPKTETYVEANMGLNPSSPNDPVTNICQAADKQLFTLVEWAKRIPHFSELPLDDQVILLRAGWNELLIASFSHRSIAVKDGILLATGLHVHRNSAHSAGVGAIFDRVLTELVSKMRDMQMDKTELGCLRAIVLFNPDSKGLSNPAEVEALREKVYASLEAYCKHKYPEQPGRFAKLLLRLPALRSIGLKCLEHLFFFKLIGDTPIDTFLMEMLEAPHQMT
hNurr1_RXRαFL (NURR1/RXRα heterodimer), sequence (P43354 328-598): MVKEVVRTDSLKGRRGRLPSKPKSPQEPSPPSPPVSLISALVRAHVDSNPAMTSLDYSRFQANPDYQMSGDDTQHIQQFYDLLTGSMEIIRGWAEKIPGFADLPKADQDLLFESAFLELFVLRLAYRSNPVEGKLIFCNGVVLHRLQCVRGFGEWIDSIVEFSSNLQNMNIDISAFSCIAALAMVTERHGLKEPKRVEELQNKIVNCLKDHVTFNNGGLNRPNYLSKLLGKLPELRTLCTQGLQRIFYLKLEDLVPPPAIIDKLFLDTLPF
hNurr1_RXRγFL (NURR1/RXRγ heterodimer), sequence (P43354 328-598): as above
hNurr1_RXRγFL (NURR1/RXRγ heterodimer), sequence (P48443 whole entry, the tested form may be a part): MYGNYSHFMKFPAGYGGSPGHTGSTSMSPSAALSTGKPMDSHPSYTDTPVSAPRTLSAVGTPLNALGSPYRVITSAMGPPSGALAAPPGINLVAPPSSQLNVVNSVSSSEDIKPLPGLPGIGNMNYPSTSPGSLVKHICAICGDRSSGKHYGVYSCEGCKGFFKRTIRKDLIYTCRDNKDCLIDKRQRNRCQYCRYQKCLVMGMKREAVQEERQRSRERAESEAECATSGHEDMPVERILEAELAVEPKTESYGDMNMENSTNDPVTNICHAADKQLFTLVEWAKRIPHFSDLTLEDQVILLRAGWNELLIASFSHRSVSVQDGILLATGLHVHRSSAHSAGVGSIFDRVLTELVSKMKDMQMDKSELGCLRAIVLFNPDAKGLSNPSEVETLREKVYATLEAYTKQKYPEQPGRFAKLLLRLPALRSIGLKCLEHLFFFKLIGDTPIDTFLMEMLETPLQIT

SMILES | Emax [1] [%] | EC50 [1] [nM] | Emax [2] [%] | EC50 [2] [nM] | hNurr1_RXRγFL Eff (%) [1, 3] [%] | hNurr1_RXRαFL Eff (%) [2, 3] [%]
CC(C)c1ccc(S(=O)(=O)n2c(Cc3ccc(C(=O)O)c(O)c3)cc3cc(C(F)(F)F)ccc32)cc1 [Example 68, 2-hydroxy-4-[[1-[[4-(1-methylethyl)phenyl]sulfonyl]-5-(trifluoromethyl)-1H-indol-2-yl]methyl]-benzoic acid] | 43 | 553 | 51 | 343 |  | 
O=C(O)c1ccc(Cc2cc3cc(Cl)ccc3n2S(=O)(=O)c2ccc(-c3ccccc3)cc2)cc1 [Example 151, 4-[[1-[biphenyl-4-sulfonyl]-5-(chloro)-1H-indol-2-yl]methyl]benzoic acid] | 17 | > 10000 | 80 | 427 |  | 
CC(C)(C)c1cccc(S(=O)(=O)n2c(Cc3ccc(C(=O)O)cc3)c(F)c3cc(C(F)(F)F)ccc32)c1 [Example 149, 4-[[1-[[3-(1,1-dimethylethyl)phenyl]sulfonyl]-3-fluoro-5-(trifluoromethyl)-1H-indol-2-yl]methyl]-benzoic acid] | 80 | 225 | 98 | 94 |  | 
COC(=O)c1ccc(Cc2cc3cc(Cl)ccc3n2S(=O)(=O)c2ccc3c(c2)C(C)(C)CO3)cc1 [Example 182] |  | 154 |  | 55 | 85 | 83
CCC(C)(C)c1ccc(S(=O)(=O)n2c(Cc3ccc(C(=O)O)cc3)cc3cc(Cl)ccc32)cc1 [Example 168, 4-[[5-chloro-1-[[4-(1,1-dimethylpropyl)phenyl]sulfonyl]-1H-indol-2-yl]methyl]benzoic acid] | 52 | 501 | 48 | 422 |  | 
CC(C)(C)c1cccc(S(=O)(=O)n2c(Cc3ccc(C4=NOC(=O)C4)cc3)cc3cc(C(F)(F)F)ccc32)c1 [Example 228, 3-[4-[[1-[[3-(1,1-dimethylethyl)phenyl]sulfonyl]-5-(trifluoromethyl)-1H-indol-2-yl]methyl]-phenyl]-4H-isoxazol-5-one] | 63 | 335 | 90 | 113 |  | 
CC(C)c1ccc(S(=O)(=O)n2c(Cc3ccc(C(=O)O)c(Cl)c3)cc3cc(C(F)(F)F)ccc32)cc1 [Example 209, 4-[[1-[[4-(1-methylethyl)-phenyl]sulfonyl]-5-trifluoromethyl-1H-indol-2-yl]methyl]-2-chlorobenzoic acid] | 51 | 741 | 69 | 333 |  | 
O=C(O)c1ccc(Cc2cc3cc(C(F)(F)F)ccc3n2S(=O)(=O)c2ccc(Oc3ccccc3)cc2)cc1 [Example 144, 4-[[1-[4-phenoxy-phenylsulfonyl]-5-(trifluoromethyl)-1H-indol-2-yl]methyl]benzoic acid] | 19 | > 10000 | 30 | 839 |  | 
Cc1cc(C)n(-c2ccc(S(=O)(=O)n3c(Cc4ccc(C(=O)O)cc4)cc4cc(C(F)(F)F)ccc43)cc2)n1 [Example 131, 4-[[1-[4-(3,5-dimethyl-pyrazol-1-yl)-phenylsulfonyl]-5-(trifluoromethyl)-1H-indol-2-yl]methyl]benzoic acid] | 21 | 1480 | 30 | 603 |  | 
O=C(O)c1ccc(Cc2cc3cc(Cl)ccc3n2S(=O)(=O)c2ccc(OC(F)(F)F)cc2)cc1 [Example 156, 4-[[1-[4-trifluoromethoxy-phenylsulfonyl]-5-(chloro)-1H-indol-2-yl]methyl]benzoic acid] | 43 | 1300 | 69 | 638 |  | 
Cc1cc(C(=O)O)ccc1Cc1cc2cc(C(F)(F)F)ccc2n1S(=O)(=O)c1cccc(C(C)(C)C)c1 [Example 197, 4-[[1-[[3-(1,1-dimethylethyl)phenyl]sulfonyl]-5-trifluoromethyl-1H-indol-2-yl]methyl]-3-methyl-benzoic acid] | 52 | 592 | 68 | 278 |  | 
CC(C)c1ccc(S(=O)(=O)n2c(Cc3ccc(C(=O)O)c(O)c3)cc3cc(Cl)ccc32)cc1 [Example 99, 4-[[5-chloro-1-[[4-(1-methylethyl)phenyl]sulfonyl]-1H-indol-2-yl]methyl]-2-hydroxybenzoic acid] | 42 | 989 | 50 | 569 |  | 
COc1ccc(S(=O)(=O)n2c(Cc3ccc(C(=O)O)cc3)cc3cc(C(F)(F)F)ccc32)cn1 [Example 120, 4-[[1-[(6-methoxy-3-pyridinyl)sulfonyl]-5-(trifluoromethyl)-1H-indol-2-yl]methyl]benzoic acid] | 49 | 661 | 68 | 202 |  | 
O=C(O)c1ccc(Cc2cc3cc(C(F)(F)F)ccc3n2S(=O)(=O)c2cccc(Cl)c2)cc1 [Example 143, 4-[[1-[3-chloro-phenylsulfonyl]-5-(trifluoromethyl)-1H-indol-2-yl]methyl]benzoic acid] | 18 | 425 | 33 | 339 |  | 
CCCCCc1ccc(S(=O)(=O)n2c(Cc3ccc(C(=O)O)cc3)cc3cc(C(F)(F)F)ccc32)cc1 [Example 140, 4-[[1-[4-pentyl-benzenesulfonyl]-5-(trifluoromethyl)-1H-indol-2-yl]methyl]benzoic acid] | 22 | 387 | 46 | 368 |  | 
COc1ccc(S(=O)(=O)n2c(Cc3ccc(C(=O)O)cc3)cc3cc(C(F)(F)F)ccc32)cc1 [Example 138, 4-[[1-[4-methoxy-phenylsulfonyl]-5-(trifluoromethyl)-1H-indol-2-yl]methyl]benzoic acid] | 28 | 583 | 41 | 344 |  | 
CC(C)(C)c1cccc(S(=O)(=O)n2c(Cc3ccc(C(=O)O)cc3)cc3c(Cl)c(Cl)ccc32)c1 [Example 119, 4-[[1-[[3-(1,1-dimethylethyl)phenyl]sulfonyl]-4-(chloro)-5-(chloro)-1H-indol-2-yl]methyl]benzoic acid] | 82 | 266 | 71 | 65 |  | 
CC(C)c1ccc(S(=O)(=O)n2c(Cc3ccc(C(=O)O)s3)cc3cc(C(F)(F)F)ccc32)cc1 [Example 71, 5-[[1-[[4-(1-methylethyl)-phenyl]sulfonyl]-5-trifluoromethyl-1H-indol-2-yl]methyl]-thiophene-2-carboxylic acid] | 82 | 95 | 61 | 47 |  | 
Cc1ccc2c(c1)cc(Cc1ccc(C(=O)O)cc1)n2S(=O)(=O)c1cccc(C(C)(C)C)c1 [Example 118, 4-[[1-[[3-(1,1-dimethylethyl)phenyl]sulfonyl]-5-(methyl)-1H-indol-2-yl]methyl]benzoic acid] | 65 | 473 | 75 | 279 |  | 
Cn1nccc1-c1cccc(S(=O)(=O)n2c(Cc3ccc(C(=O)O)cc3)cc3cc(C(F)(F)F)ccc32)c1 [Example 20, 4-[[1-[[3-(1-methyl-1H-pyrazol-5-yl)phenyl]sulfonyl]-5-(trifluoromethyl)-1H-indol-2-yl]methyl]benzoic acid] | 44 | 617 | 54 | 295 |  | 
O=C(O)c1ccc(Cc2cc3cc(C(F)(F)F)ccc3n2S(=O)(=O)c2ccc(N3CCOCC3)nc2)cc1 [Example 135, 4-[[1-[[6-(4-morpholinyl)-3-pyridinyl]sulfonyl]-5-(trifluoromethyl)-1H-indol-2-yl]methyl]benzoic acid] | 19 | 917 | 31 | 643 |  | 
O=C(O)c1ccc(Cc2cc3cc(Cl)ccc3n2S(=O)(=O)c2cccc(Cl)c2)cc1 [Example 164, 4-[[1-[3-chloro-phenylsulfonyl]-5-(chloro)-1H-indol-2-yl]methyl]benzoic acid] | 47 | 851 | 53 | 753 |  | 
Cc1cc(S(=O)(=O)n2c(Cc3ccc(C(=O)O)cc3)cc3cc(C(F)(F)F)ccc32)ccc1Cl [Example 121, 4-[[1-[4-chloro-3-methyl-phenylsulfonyl]-5-(trifluoromethyl)-1H-indol-2-yl]methyl]benzoic acid] | 56 | 433 | 65 | 192 |  | 
O=C(O)c1ccc(Cc2cc3cc(Cl)ccc3n2S(=O)(=O)c2ccc(C(F)(F)F)cc2)cc1 [Example 158, 4-[[1-[4-trifluoro-phenylsulfonyl]-5-(chloro)-1H-indol-2-yl]methyl]benzoic acid] | 53 | 1260 | 66 | 504 |  | 
